The values that follow come from a melting point compilation (Tetko et al.; mined from patent text by program, amines drawn as free bases though some values may be those of a salt).

For orientation: melting point means the temperature, or range, at which the solid turns liquid.

Consider `COc1ccc2c3c(nn(CCO)c13)-c1ccccc1N2`, for which the melting point stood at 275 °C.
Then `O=C(O)Cc1cc2c(c(C(=O)O)c1)NC(C(F)(F)F)CC2` (configuration not stated), with 195 to 196 °C; and `Fc1ccc2c(c1)nc(CC(F)(F)F)n2C1CCNCC1`, with 135 °C; and `Nc1cc2c(cc1[N+](=O)[O-])CC(CCO)C2` (configuration not stated), with 89 to 91 °C.
`COc1ccc(CC(=O)Nc2cccc3c2C(=O)c2c-3n[nH]c2-c2ccc(OC)cc2)cc1` showed a melting point of 280 °C.
`COC(=O)c1sccc1OCC(O)CN1CCC(O)(c2ccccc2)CC1` (configuration not stated) displayed a melting point of 150 to 152 °C.
Then `COc1cc2nc(N)nc(-c3cccc(CO)c3)c2cc1OC`, with 230 to 232 °C; and `CCCc1c(OCCOc2cccc(Sc3ccc(C(=O)O)cc3)c2)ccc(C(C)=O)c1O`, with 144 to 146 °C.
Consider `CCCc1nn(-c2ccc(C(F)(F)F)cn2)cc1CCCCOc1ccc(CC(=O)O)cc1`, for which the melting point was 121 to 122 °C.
The compound `CC(C)NC(=O)Nc1ccc(-c2ccnc3c(C(=O)c4cccs4)cnn23)s1` came in with a melting point of 162 to 165 °C.
For `COCOc1ccccc1-c1cc(-c2cccc(CN=[N+]=[N-])c2)c(C#N)c(N)n1`, the melting point was 99 to 100 °C.
Then `CC(C)c1cc(Oc2ccc(Cl)cc2)nc(C(C)C)c1N`, with 86 to 88 °C; and `COC(=O)c1c([N+](=O)[O-])cc(OC)c(OC)c1OC`, with 74 to 76 °C.
For `CC(C)Cn1c(CO)nc2c(N)nc3cccnc3c21`, the melting point was in the range of 226 to 228 °C.
Then `O=C1CCC(c2ccc(-n3cnc4ccccc43)cc2)=NN1`, with 262 to 264 °C; and `NCCOCC(O)c1ccc2sccc2c1` (configuration not stated), with 87 to 90.5 °C.
Compound `CCOC(=O)c1c(C(C)(C)O)nc(CO)n1Cc1ccc(-c2ccccc2-c2nnn[nH]2)cc1` registered a melting point of 98 to 99 °C.
For `COc1cc(N2[C@H](C)C[C@](C)(O)[C@@H]2C)ccc1C#N`, the melting point lay in the range of 121 to 123 °C.
Then `CC(Cc1cc(F)cc2cc(Cl)oc12)NC(=O)OC(C)(C)C` (configuration not stated), with 133 to 135 °C; and `CCC(=NN=C(c1ccc(Cl)cc1)c1ccc(OS(C)(=O)=O)cc1)NN=C(c1ccc(Cl)cc1)c1ccc(OS(C)(=O)=O)cc1`, with 184 to 185 °C; and `CC(C)CCNC(=O)c1ccc2c(c1)N(C(C)CN1CCCC1CO)c1ccccc1S2` (configuration not stated), with 140 °C.
`Cc1cc(C)c2nc(C3CC3)n(Cc3ccc(C4(C(=O)O)CC=CC4)s3)c2n1`: the melting point lay in the range of 184 to 185 °C.
Turning to `Cc1cc(-n2ccnc2)c2cccc(OCc3c(Cl)ccc(S(=O)(=O)N4CCC[C@H]4C(=O)NCc4ccccn4)c3Cl)c2n1`, the melting point was found to be 102 °C.
Consider `O=C1CCCc2nc(C#Cc3ccccc3)ccc21`, for which the melting point lay within 121 to 122 °C.
`CN(Cc1ccc(Cl)cc1)c1ccc(S(=O)CCCCCC(=O)O)cc1` (configuration not stated): the melting point was in the range of 109 to 111 °C.
As for `CN(C)c1ccc(-c2ccnc(Nc3ccc4c(c3)OCCO4)c2)cc1`, the melting point lay in the range of 154 to 156 °C.
In turn, `O=C(O)C(Cc1n[nH]c2ccccc12)NC(=O)C(CS)C(F)(F)F` (configuration not stated) returned a melting point of 218 to 220 °C.
Consider `FC(F)(F)C(c1ccc(Cl)cc1)C(Br)c1ccccc1` (configuration not stated), for which the melting point lay in the range of 143 to 146 °C.
Then `CCOC(=O)C(=O)Nc1coc2ccccc2c1=O`, with 146 to 148 °C; and `CCCCCCC(=O)Nc1c(Sc2cc(C)cc(C)c2)c(C)c[nH]c1=O`, with 212 to 213 °C; and `CN(C)C=Cc1cccc(CC(=O)O)c1[N+](=O)[O-]`, with 124 to 126 °C.
Regarding `C#CCOc1ccc(C(=O)C=Cc2ccccc2)c(O)c1`, the melting point lay in the range of 115 to 117 °C.
On to `CC(=O)C(=Cc1cccc([N+](=O)[O-])c1)P(=O)(OCC(C)(C)C)OCC(C)(C)C`, for which the melting point is 139 to 140 °C.
Compound `O=C1CC(c2ccccc2)(c2cccs2)Oc2ccccc21` (configuration not stated) returned a melting point of 78 to 80 °C.
In the case of `COC(=O)CCCNC(=O)N1CCN(c2cc3c(cc2F)c(=O)c(C(=O)O)cn3C2CC2)CC1`, the melting point was in the range of 198 to 200 °C.
In turn, `CCCCCC(c1ccc(OC)cc1OC)C(C(N)=O)c1cc(C(=O)O)ccc1C(C)(C)C` (configuration not stated) came in with a melting point of 153 to 154 °C.
As for `Nc1ccc(OCC(O)CN2CCN(c3ccccc3C(=O)O)CC2)cc1` (configuration not stated), the melting point was 260 to 263 °C.
The compound `CCOCc1nc2c(N)nc3c(c2n1NCCCNC(=O)C(C)C)CCCC3` gave a melting point of 163 to 165 °C.
Compound `CCCCCCCCCCCCCCc1ccc(O)c(CC)c1` displayed a melting point of 45.5 to 46.5 °C.
With `CCOC(c1ccc(Cl)c2nc3n(c12)CCCN3c1ccc(OC)nc1C)C(F)(F)F` (configuration not stated), the melting point lay within 168 to 170 °C.
For `N#Cc1ncccc1COc1cccc(F)c1`, the melting point is 52 to 53 °C.
Then `O=Cc1ccc2c(c1)CCC2`, with 85 to 86 °C; and `Cc1cc(C2=NOC(c3cc(Cl)cc(Cl)c3)(C(F)(F)F)C2)ccc1S(=O)(=O)NCc1ccccn1` (configuration not stated), with 57 to 58 °C; and `O=C(O)Cc1cc(C(=O)C=Cc2ccc(Cl)cc2Cl)ccc1O`, with 232 °C.
Then `CC(C)C(=O)N1C2=NCCN2C(=O)c2nc(C(C)C)[nH]c21`, with 271 to 273 °C.
`Cc1cc(C(=O)NC2CC2)ccc1N1CCN(Cc2cc(C)c3c(c2)NC(=O)C(C)O3)CC1` (configuration not stated) yielded a melting point of 241 to 242 °C.
Regarding `Cc1ccc(S(=O)(=O)N2CCn3c(c(C(N)=O)c(Cl)c3-c3ccccc3)C2)cc1`, the melting point lay in the range of 188 to 190 °C.
Then `Cc1cc(N(C)C)ccc1Br`, with 47 to 49 °C; and `COC(=O)c1ccc2oc(-c3cc(C)ccc3OC)cc(=O)c2c1`, with 154 to 156 °C.
Take `CC(C)(C)OC(=O)NC(CF)CC(=O)O` (configuration not stated): the melting point came out at 112 °C.
Compound `CCCc1c(OCCCOc2ccc3c(c2CCC)OC(C)(CCC(=O)OC)CC3=O)ccc(C(C)=O)c1O` (configuration not stated) had a melting point of 73 to 74.5 °C.
On to `O=C(O)CCOCCCc1ccc(-c2nc(=O)c3ccccc3s2)nc1`, for which the melting point lay in the range of 145 to 147 °C.
Compound `C#CCOC(=O)c1ccc(O)c(Cl)c1` displayed a melting point of 144 to 145 °C.
Compound `CC(C)(COc1ccc(Cl)cc1)C(O)C(Oc1ccc(Cl)cc1)n1ccnc1` (configuration not stated) registered a melting point of 142 to 144 °C.
In the case of `O=C(CCl)c1csc(C(=O)CCl)c1`, the melting point was 154 to 155 °C.
Then `O=C1NCCc2c(-c3cccc(C(F)(F)F)c3)[nH]c3cccc1c23`, with 212 to 214 °C; and `Cc1c(C(F)(F)F)n(C)c(=O)n(-c2ccc(Br)cc2F)c1=O`, with 129 to 131 °C; and `O=C(NCC1CCN(c2cc3nc(C(=O)O)c(=O)[nH]c3cc2[N+](=O)[O-])C1)Nc1ccccc1` (configuration not stated), with > 300 °C.
Turning to `COc1cc([N+](=O)[O-])ccc1-c1ccccc1`, the melting point came to 71 °C.
In turn, `CCCCCC(CC(=O)OC)c1cc(C=O)c(OC)cc1OC` (configuration not stated) returned a melting point of 110 to 112 °C.
On to `C[C@]1(CN2CCN(c3ccc(Cl)cc3)CC2)Cn2cc([N+](=O)[O-])nc2O1`, for which the melting point lay within 218 to 220 °C.
For the compound `CC1(C)CC(C2=NN(CC#N)C(=O)N(/N=C/c3cncc(F)c3)C2)=NO1`, the melting point fell in the range of 195 to 197 °C.
In turn, `C=CCNC(=O)Nc1ccccc1CCc1cc(C(C)(C)C)c(O)c(C(C)(C)C)c1` yielded a melting point of 169 to 172 °C.
Then `CCCc1cc(C(O)=S)cc(N)c1Cc1ccccc1`, with 151 to 152 °C; and `FC(F)(F)c1ccccc1CC[C@H]1CN(Cc2ccccc2)CCN1Cc1ccccc1`, with 77 to 82 °C.
As for `O=C(NC1CCCCC1)n1cc(F)c(=O)[nH]c1=O`, the melting point fell in the range of 276 to 278 °C.
The compound `C[C@H](NC(=O)c1nc(CCCc2ccccc2)c[nH]1)C(=O)NC(C=O)CC(=O)O` (some centres not stated) returned a melting point of 94 to 96 °C.
`CON(C)C(=O)Nc1c(C(=O)c2cccc(Cl)c2)[nH]c2cc(Cl)ccc12` gave a melting point of 167 to 169 °C.
Regarding `CNC(=O)/C(=N/OC)c1ccccc1COc1ncc(Cl)cc1C(F)(F)F`, the melting point was in the range of 105 to 106 °C.
Compound `COCCN(C)Cc1c(-c2ccc(NC(=O)NOC)cc2)sc2c1c(=O)n(-c1ccccc1)c(=O)n2Cc1c(F)cccc1F` displayed a melting point of 161 to 163 °C.
Then `CNCc1cn(-c2ccccc2)nc1OCc1ccc(OCc2nc(-c3ccco3)oc2C)c(OC)c1`, with 103 to 104 °C; and `COc1cccc(-c2cnn(-c3ccccn3)c2)c1`, with 89 to 90 °C; and `CCn1ncc(C(=S)c2ccc3c(c2C)/C(=N/OC)CCS3)c1O`, with 92 to 97 °C.
`CCOC(=O)N1CCC(N2CCN(CC(=O)Nc3c(C)cccc3C)CC2)CC1Cc1ccc(Cl)c(Cl)c1` (configuration not stated) displayed a melting point of 101 °C.
As for `COc1c(-c2cccs2)ccc2c(OC)c(-c3cccs3)ccc12`, the melting point lay in the range of 225 to 228 °C.
Regarding `COc1ccc(S(=O)(=O)C2(C(=O)NO)CCN(C3CCCCCCC3)CC2)cc1`, the melting point was > 200 °C.
For the compound `CCCCCc1ccc(C2c3c(C)c(N)c(C)c(C)c3OC2(C)C)cc1` (configuration not stated), the melting point fell in the range of 67 to 68 °C.
Turning to `O=C(O)CCCOc1ccc(C2=CCCCCC2)cc1`, the melting point lay within 87 to 88 °C.
As for `CCCCC1=CC(=C(Br)Br)OC1=O`, the melting point is 48 to 49 °C.
As for `CC(C)(C)OC(=O)NCCCn1c2c(c3ccc(NCC(=O)O)cc3c1=O)C(=O)c1ccccc1-2`, the melting point fell in the range of 190 to 192 °C.
`CC1(O)CCN(C(=O)c2cc(-c3cnc4[nH]cc(C(=O)C5(C)CCCCC5)c4n3)cs2)CC1` came in with a melting point of 257 to 259 °C.
For the compound `O=C(O)c1ccccc1C(=O)NCCCn1ccnc1`, the melting point lay in the range of 160 to 162 °C.
Compound `COCCC(=O)N(Cc1ccc(OC(F)(F)F)cc1)c1cc(Cl)cc(-c2nnn[nH]2)c1` showed a melting point of 146 to 151 °C.
Take `CN(C)C(=O)C(C)(C)n1cc(-c2ccccc2)c(-c2ccccc2)n1`: the melting point lay within 148 to 150 °C.
`CC(C)c1ccc(NC(=O)N(C)C2N(C)C(c3ccc(F)cc3)=NC2(C(F)(F)F)C(F)(F)F)cc1` (configuration not stated) showed a melting point of 203 to 204 °C.
Compound `O=C(O)CSc1nc(-n2cc(C3c4ccccc4C=Cc4ccccc43)c(=S)[nH]c2=O)ncc1-c1ccc(CC(=O)O)cc1` returned a melting point of 280 °C.
The compound `CCCNC(=O)C(C)=Cc1ccc2c(c1)c(Cc1ccc(C(=O)NS(=O)(=O)c3ccccc3C)cc1OC)cn2CC(=O)N(C)C` had a melting point of 230 to 231 °C.
